According to the NIST ThermoML archive (doi:10.1021/je500381c):
± gives the expanded uncertainty stated by the source.

Assay: xn = mol fraction of the nth substance listed
Conditions: 100 kPa, Liquid; for mass density: Vibrating tube method

CCC12CC3CC(CC(C3)C1)C2 [1-ethyladamantane] + OCC1CCCCC1
Conditions	mass density, 313.15 K [kg/m3]	mass density, 318.15 K [kg/m3]	mass density, 323.15 K [kg/m3]	mass density, 328.15 K [kg/m3]	mass density, 333.15 K [kg/m3]	viscosity, 313.15 K [mPa·s]	viscosity, 318.15 K [mPa·s]	viscosity, 323.15 K [mPa·s]	viscosity, 328.15 K [mPa·s]	viscosity, 333.15 K [mPa·s]
x2 = 0	–	919.21 ± 0.15	915.62 ± 0.15	912.01 ± 0.15	908.41 ± 0.15	3.878 ± 0.061	3.478 ± 0.055	3.134 ± 0.05	2.838 ± 0.045	2.581 ± 0.041
x2 = 0.1	–	917.79 ± 0.15	914.09 ± 0.15	910.38 ± 0.15	906.65 ± 0.15	3.897 ± 0.062	3.463 ± 0.055	3.094 ± 0.049	2.777 ± 0.044	2.507 ± 0.04
x2 = 0.2002	–	916.77 ± 0.15	913.03 ± 0.15	909.27 ± 0.15	905.5 ± 0.15	4.182 ± 0.066	3.688 ± 0.058	3.27 ± 0.052	2.915 ± 0.046	2.613 ± 0.041
x2 = 0.2997	–	915.95 ± 0.14	912.19 ± 0.14	908.41 ± 0.15	904.61 ± 0.15	4.542 ± 0.072	3.973 ± 0.063	3.497 ± 0.055	3.096 ± 0.049	2.756 ± 0.044
x2 = 0.3999	–	915.2 ± 0.14	911.42 ± 0.14	907.62 ± 0.14	903.81 ± 0.14	5.016 ± 0.079	4.35 ± 0.069	3.798 ± 0.06	3.338 ± 0.053	2.952 ± 0.047
x2 = 0.4998	918.29 ± 0.14	914.53 ± 0.14	910.75 ± 0.14	906.94 ± 0.14	903.1 ± 0.14	5.663 ± 0.089	4.857 ± 0.076	4.199 ± 0.066	3.657 ± 0.058	3.208 ± 0.051
x2 = 0.5989	917.71 ± 0.14	913.94 ± 0.14	910.15 ± 0.14	906.33 ± 0.14	902.49 ± 0.14	6.499 ± 0.1	5.504 ± 0.087	4.707 ± 0.074	4.059 ± 0.064	3.525 ± 0.055
x2 = 0.7001	917.19 ± 0.14	913.43 ± 0.14	909.63 ± 0.14	905.81 ± 0.14	901.96 ± 0.14	7.629 ± 0.12	6.374 ± 0.1	5.378 ± 0.084	4.581 ± 0.072	3.935 ± 0.062
x2 = 0.8023	916.67 ± 0.13	912.93 ± 0.13	909.16 ± 0.13	905.35 ± 0.14	901.5 ± 0.14	9.75 ± 0.15	8.051 ± 0.13	6.705 ± 0.11	5.629 ± 0.088	4.674 ± 0.073
x2 = 0.8996	916.12 ± 0.13	912.44 ± 0.13	908.7 ± 0.13	904.92 ± 0.13	901.1 ± 0.13	11.66 ± 0.18	9.556 ± 0.15	7.906 ± 0.12	6.508 ± 0.1	5.472 ± 0.086
